Columns and labels:
[1] = tested on: mice dendritic cells (D.2.4 cells); experiment: Expression of 100% cytidine-modified luciferase (FLuc) mRNA, LPP-wrapped, in dendritic cells (luciferase activity, RLU); assay type: cell-based; conditions: FIG. 2; for difference of luciferase expression versus the control and m^4C (significance analysis on variance): 100% of cytidine replaced, control = cytidine without modification, P≤0.01, 24 h after transfection
Source text: Obtaining of the mRNA of the modified luciferase: DNA sequence of Luc may be in vitro transcribed to mRNA by means of a transcriptase under a conventional reagent condition. During the process of transcription, modified mRNA in varying proportions were obtained according to a ratio of the modified C (cytidine) and non-modified C, where the modified mRNA may contain U-modified mRNA in varying proportions. The sequence was in vitro synthesized into the following modified mRMA, thus forming new modified luciferase. In the above sequence (SEQ NO:1), cytidine was replaced by the modified C* in the present invention; and the following modified C* denotes the expression of the mRNA of 5 monocytidine-modified mRNA having a modification ratio of 100% (namely, all the C were replaced into the following 5 different C* modifications, m^4C (N4-methylcytidine), and m^4Cm (N^4, 2′-O-dimethylcytidine), specifically as shown in Table 1.
1.2.1: Preparation of a phospholipid mixed liquor: phospholipid:DOPE:mPEG2000-DSPE=49:49:2 were dissolved into an ethanol solution. DOPE was purchased from Avanti, mPEG2000-DSPE was purchased from cordenpharma, and PBS was purchased from Invitrogen.
1.2.2: Preparation of mRNA: 1 mL mRNA (mRNA having a concentration of 0.2 mg/mL and total mass of 0.2 mg as shown in Table 2) in each treatment group was respectively sucked up by a BD injector.
1.2.3: Preparation of phospholipid/mRNA: […] and 3 mL phospholipid solution (having a concentration of 12 mg/mL) were respectively sucked up by a BD injector and inserted into a micro-fluidic chip (the microfluidics herein should be a small-sized equipment capable of producing package for nanoparticles); the setup parameters: volume: 9.0 mL; and flow rate ratio: 3:1, total flow rate: 1 mL/min; temperature: 37.0° C., initial amount: 0.35 mL; ending amount: 0.10 mL, thus a phospholipid/mRNA solution was obtained, namely, mRNA particles wrapped by phospholipid and a phospholipid mixed solution were obtained.
Thereby, the wrapped mRNA carrier in each treatment group was obtained.
Experiment reagent: (1) water was added to a harvest buffer (25 ml): 1.25 ml 1 M Tris-HCl(pH7.5), 25 μl 1 M DTT, 250 μl 10% Triton X-100 to 25 ml for storage at 4° C. (2) water was added to an ATP buffer (10 ml): 1.25 ml 1 M Tris-HCl(pH7.5), 250 μl 1 M MgCl2, 24 mg ATP to 10 ml for storage at […] (3) luciferin buffer (36 ml): 10 mg luciferin, 36 ml 5 mM KH2PO4 (pH7.8) was performed for storage at 4° C. (4) PBS: […], 2.68 mMKCl, 10 mM Na2HPO4, 1.76 mM KH2PO4 was performed for storage at 4° C. […]
1.3.6: same volume of cell lysis buffer (100 μl) was successively taken and put to the microcentrifuge tubes in step 5, and mixed evenly immediately, and […] were read on a Luminometer. […]

dendritic cells [2] = experiment: Influence of a 120A Poly(A) tail on the 3′ terminal on expression of modified luciferase mRNA in dendritic cells; assay type: cell-based, mice; conditions: 120A tail; luciferase mRNA 100% modified; compared with FIG. 2 (FIG. 3)
Protocol: 120A was added on a 3′ terminal as a tail, so as to survey the influence of adding Poly(A) on the 3′ terminal on the translation effect, as well as on the expression of the luciferase 100% modified by the inventions 1-4 and control group. The influence on enzyme expression was measured according to the packaging method and cell infection method in Example 1. It can be obviously seen through the comparison of FIG. 2 that the expression was increased both to the modified or non-modified mRNA after adding a Ploy (A) structure on the 3′ terminal.

dendritic cells [3] = experiment: Influence of different modification ratios of cytidine on luciferase mRNA expression; assay type: cell-based, mice; conditions: for difference of expression at the best modification ratio versus other modification ratios (variance analysis): best ratio: invention 1 80%-100%, invention 4 20%, invention 2 40%, invention 3 5%; for trend of expression with the increase of the modification ratio: cytidine replaced at 0.5% to 100%; for trend of expression with the increase of the modification ratio / modification ratio with the maximum (optimal) expression quantity: FIGS. 4-7; for modification ratio with the maximum (optimal) expression quantity / modification ratio at which the expression quantity is relatively high: luciferase mRNA, part of the cytidine replaced; for modification ratio at which the expression quantity is relatively high: FIGS. 5-7
Protocol: mRNA of the luciferase in Example 1 was set as an example; a portion of cytidine was replaced with the compounds of the modified cytidine in the present invention having a ratio of 0.5%, 5%, 10%, 20%, 30%, 40%, 50%, 70%, 80% and 90%; and the specific replacement method was as follows: transcription was performed by a transcriptase of in vitro luciferase DNA with the supply of AUCG raw materials and according to a conventional method, where the synthesis method should be controlled and replaced, and then a portion of cytidine in mRNA was replaced according to the above ratio. The influence of the replacement in different ratios on the expression of mRNA was surveyed.

SMILES | difference of luciferase expression versus the control and m^4C (significance analysis on variance) [1] | change of expression after adding a Poly(A) structure on the 3′ terminal (dendritic cells [2]) | difference of expression at the best modification ratio versus other modification ratios (variance analysis) (dendritic cells [3]) | trend of expression with the increase of the modification ratio (dendritic cells [3]) | modification ratio with the maximum (optimal) expression quantity (dendritic cells [3]) | difference of luciferase expression versus m^4Cm-modified mRNA ([1]; 100% modification, comparator m^4Cm (N^4,2′-O-dimethylcytidine)) | modification ratio at which the expression quantity is relatively high (dendritic cells [3])
NC(N)=Nc1ccn(C2OC(COP(=O)([O-])OP(=O)([O-])OP(=O)([O-])[O-])C(O)C2O)c(=O)n1.[K+].[K+].[K+].[K+] (stereo not shown) [invention 1] | highly significant difference | comparatively obvious | significant difference | increased | 80%-100% | – | –
Cc1cn(C2CC(O)C(COP(=O)([O-])OP(=O)([O-])OP(=O)([O-])[O-])O2)c(=O)nc1N=C(N)N.[K+].[K+].[K+].[K+] (stereo not shown) [invention 2] | highly significant difference | – | significant or highly significant differences | gradually increases | 40% | no significant difference | 20%-40%
Cc1c(O)c(N=C(N)N)nc(=O)n1C1OC(COP(=O)([O-])OP(=O)([O-])OP(=O)([O-])[O-])C(O)C1O.[K+].[K+].[K+].[K+] (stereo not shown) [invention 4] | highly significant difference | – | significant or highly significant differences | gradually increases | 20% | – | 20%-40%
